Data from ChEMBL document CHEMBL1151343, “Antitumor plants. X. Constituents of Nectandra rigida” (1980).
Values after ≈ are worked out from the molar mass of the structure shown.

Tested on: KB
Experiment: Cytotoxicity against human KB cells
Type: functional
Details: read-out: ED50 (the source's name)

`C/C=C/c1cc(OC)c2c(c1)[C@H](C)[C@@H](c1ccc(O)c(OC)c1)O2` [LICARIN A] gave an EC50 of 7 µg/mL (≈ 21.4 µM).
